Results reported in US20240060999A1, “BLOOD COAGULATION INSPECTION METHOD” (FUJIMORI KOGYO CO., LTD, priority 2020, published 2024).

Tested on: whole blood
Assay: ROTEM whole blood coagulation with dialyzed Dade Innovin (recombinant tissue factor) 0.569 μg/mL + Ca 12 mM + CTI 20 μg/mL + PKSI-527 40 μM
Type: cell-based
Settings: Ex26; for CT (clotting time): Innovin 0.569 μg/mL+Ca+CTI+PKSI-527, heparan sulfate 2 μg/mL
Experimental: ROTEM was used to analyze blood coagulation.
Blood was collected using a blood collection tube containing 3.2% sodium citrate manufactured by Terumo Corporation.
Blood coagulation was analyzed in the case of having added 4% (final concentration 0.569 μg/mL) of Dade Innovin (recombinant tissue factor: Sysmex Corporation) having being diluted by 50 times after dialysis, calcium chloride (Ca; final concentration 12 mM), heparan sulfate (final concentration 0 or 2 μg/mL), CTI (final concentration 20 μg/mL), PKSI-527 (final concentration 40 μM) without and with a soluble thrombomodulin (rTM: final concentration 30 nM) further having been added, as well as with an APC inhibitory aptamer (HS02-44G; final concentration 1 μM) in addition to 30 nM of soluble thrombomodulin.
Blood coagulation was analyzed in the case of having added 4% (final concentration 0.569 μg/mL) of 50-fold diluted Dade Innovin (recombinant tissue factor: Sysmex Corporation) after dialysis, calcium chloride (Ca; final concentration 12 mM), low molecular weight heparan (trade name FRAGMIN; Pfizer) (final concentration 0 or 0.2 U/mL), CTI (final concentration 20 μg/mL), and PKSI-527 (final concentration 40 μM) with and without a soluble thrombomodulin (rTM; final concentration 30 nM) further having been added, as well as with an APC inhibitory aptamer (HS02-44G; final concentration 1 μM) in addition to 30 nM soluble thrombomodulin.
ROTEM was used to analyze coagulation.
Blood coagulation was analyzed in the case of having added 4% (final concentration 0.569 μg/mL) of 50-fold diluted Dade Innovin (recombinant tissue factor: Sysmex Corporation) after dialysis, calcium chloride (Ca; final concentration 12 mM), ARIXTRA (final concentration 0 or […]), CTI (final concentration 20 μg/mL), and PKSI-527 (final concentration 40 μM), without and with thrombomodulin (rTM; final concentration 30 nM) further having been added, as well as with an APC inhibitory aptamer (HS02-44G; final concentration 1 μM) in addition to soluble thrombomodulin 30 nM.

Heparan sulfate
CT (clotting time) (no rTM): 410 s | CT (clotting time) (rTM 30 nM): 904 s | CT (clotting time) (rTM 30 nM+APC inhibitory aptamer 1 μM): 643 s | anticoagulation ability of the soluble thrombomodulin (addition of heparan sulfate 2 μg/mL, rTM 30 nM): markedly enhanced
